According to patent US8063071B2 (GlaxoSmithKline, LLC, priority 2007, dated 2011):
Where a name gives a salt, the structure may show the parent alone.

Biological target: T1, Recombinant human IKKβ (residues 1-737) (Homo sapiens, UniProt O14920)
T1 construct: Recombinant human IKKβ (residues 1-737); GST (C); made in house
T1 sequence (O14920 1-737): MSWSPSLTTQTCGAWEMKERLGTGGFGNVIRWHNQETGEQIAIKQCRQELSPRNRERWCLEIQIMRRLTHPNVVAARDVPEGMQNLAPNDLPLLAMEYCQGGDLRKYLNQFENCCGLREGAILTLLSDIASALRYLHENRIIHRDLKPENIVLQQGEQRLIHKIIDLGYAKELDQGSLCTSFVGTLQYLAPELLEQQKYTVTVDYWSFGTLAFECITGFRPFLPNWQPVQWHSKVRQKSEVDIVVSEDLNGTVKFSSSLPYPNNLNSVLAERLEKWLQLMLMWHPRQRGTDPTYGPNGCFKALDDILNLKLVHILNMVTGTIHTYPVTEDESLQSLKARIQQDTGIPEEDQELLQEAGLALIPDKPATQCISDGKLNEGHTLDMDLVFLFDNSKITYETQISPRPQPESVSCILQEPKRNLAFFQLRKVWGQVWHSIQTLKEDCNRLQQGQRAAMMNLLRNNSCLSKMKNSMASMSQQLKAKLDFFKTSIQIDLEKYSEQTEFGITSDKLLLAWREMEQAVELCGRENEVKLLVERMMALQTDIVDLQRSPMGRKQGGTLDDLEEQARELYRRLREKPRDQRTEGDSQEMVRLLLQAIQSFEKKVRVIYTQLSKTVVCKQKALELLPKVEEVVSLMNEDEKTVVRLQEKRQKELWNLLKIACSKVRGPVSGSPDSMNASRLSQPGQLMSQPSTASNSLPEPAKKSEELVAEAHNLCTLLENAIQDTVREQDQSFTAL
Test: IKK2 assay (TR-FRET)
Format: biochemical
Conditions: ATP 1 μM final, read-out: pIC50 against IKK2 (converted)
Protocol: Recombinant human IKKβ (residues 1-737) was expressed in baculovirus as a C-terminal GST-tagged fusion protein, and its activity was assessed using a time-resolved fluorescence resonance energy transfer (TR-FRET) assay. Briefly, IKK2 (0.5 nM-5 nM final) diluted in assay buffer (50 mM HEPES, 10 mM MgCl2, 1 mM CHAPS pH 7.4 with 1 mM DTT and 0.01% w/v BSA) was added to wells containing various concentrations of compound or DMSO vehicle (1.7% final). The reaction was initiated by the addition of GST-IB substrate (25 nM final)/ATP (1 μM final), in a total volume of 6 μl. The reaction was incubated for 15 minutes at room temperature, then terminated by the addition of 3 μl of detection reagent in buffer containing 50 mM EDTA (100 mM HEPES pH 7.4, 150 mM NaCl, 50 mM EDTA and 0.01% w/v BSA) containing antiphosphoserine-IB-32/36 monoclonal antibody 12C2 (Cell Signalling Technology, Beverly Mass., USA) labelled with W-1024 europium chelate (Wallac OY, Turku, Finland), and an APC-labelled anti-GST antibody (Prozyme, San Leandro, Calif., USA) was added and the reaction was further incubated for 60 minutes at room temperature. The degree of phosphorylation of GST-IB was measured using a BMG Rubystar plate reader (BMG Labtech, Aylesbury, UK) as a ratio of specific 665 nm energy transfer signal to reference europium 620 nm signal.

Row | SMILES | IC50 [µM]
1 | CCS(=O)(=O)N1CCC(c2c[nH]c3c(C(N)=O)cc(-c4cccc(CN)c4)cc23)CC1 [Example 14, 5-[3-(aminomethyl)phenyl]-3-[1-(ethylsulfonyl)-4-piperidinyl]-1H-indole-7-carboxamide] | ≤ 10
2 | CCS(=O)(=O)N1CCC(c2c[nH]c3c(C(N)=O)cc(-c4cc(C#N)cc(CNCC(F)(F)F)c4)cc23)CC1 [Example 41, 5-(3-cyano-5-{[(2,2,2-trifluoroethyl)amino]methyl}phenyl)-3-[1-(ethylsulfonyl)-4-piperidinyl]-1H-indole-7-carboxamide trifluoroacetate] | ≤ 10
3 | CCS(=O)(=O)N1CCC(c2c[nH]c3c(C(N)=O)cc(-c4csc(CN5CCCC5CC(C)C)c4)cc23)CC1 (stereo not shown) [Example 93, 3-[1-(ethylsulfonyl)-4-piperidinyl]-5-(5-{[2-(2-methylpropyl)-1-pyrrolidinyl]methyl}-3-thienyl)-1H-indole-7-carboxamide trifluoroacetate] | ≤ 10
4 | CCS(=O)(=O)N1CCC(c2c[nH]c3c(C(N)=O)cc(-c4ccc(N5CCNCC5)nc4)cc23)CC1 [Example 135, 3-[1-(ethylsulfonyl)-4-piperidinyl]-5-[6-(1-piperazinyl)-3-pyridinyl]-1H-indole-7-carboxamide trifluoroacetate] | ≤ 10
5 | CCC(CC)NCc1ccc(-c2cc(C(N)=O)c3[nH]cc(C4CCN(S(=O)(=O)CC)CC4)c3c2)cc1 [Example 142, 5-(4-{[(1-ethylpropyl)amino]methyl}phenyl)-3-[1-(ethylsulfonyl)-4-piperidinyl]-1H-indole-7-carboxamide] | ≤ 10
6 | CCNCc1ccc(-c2cc(C(N)=O)c3[nH]cc(C4CCN(S(=O)(=O)CC)CC4)c3c2)cc1 [Example 145, 5-{4-[(ethylamino)methyl]phenyl}-3-[1-(ethylsulfonyl)-4-piperidinyl]-1H-indole-7-carboxamide] | ≤ 10
7 | CCS(=O)(=O)N1CCC(c2c[nH]c3c(C(N)=O)cc(-c4ccc(CN5CCCC5)cc4)cc23)CC1 [Example 149, 3-[1-(ethylsulfonyl)-4-piperidinyl]-5-[4-(1-pyrrolidinylmethyl)phenyl]-1H-indole-7-carboxamide trifluoroacetate] | ≤ 10
8 | CCS(=O)(=O)N1CCC(c2c[nH]c3c(C(N)=O)cc(-c4ccc(CNC[C@@H](C)O)cc4)cc23)CC1 [Example 152, 3-[1-(ethylsulfonyl)-4-piperidinyl]-5-[4-({[(2R)-2-hydroxypropyl]amino}methyl)phenyl]-1H-indole-7-carboxamide trifluoroacetate] | ≤ 10
9 | CCS(=O)(=O)N1CCC(c2c[nH]c3c(C(N)=O)cc(-c4ccc(CNCCC(C)(C)C)s4)cc23)CC1 [Example 199, 5-(5-{[(3,3-dimethylbutyl)amino]methyl}-2-thienyl)-3-[1-(ethylsulfonyl)-4-piperidinyl]-1H-indole-7-carboxamide] | ≤ 10
10 | CCN(C)c1ccc(-c2cc(C(N)=O)c3[nH]cc(C4CCN(S(=O)(=O)CC)CC4)c3c2)cn1 [Example 225, 5-{6-[ethyl(methyl)amino]-3-pyridinyl}-3-[1-(ethylsulfonyl)-4-piperidinyl]-1H-indole-7-carboxamide trifluoroacetate] | ≤ 10
11 | CCS(=O)(=O)N1CCC(c2c[nH]c3c(C(N)=O)cc(-c4ccc(N(C)C)nc4)cc23)CC1 [Example 226, 5-[6-(dimethylamino)-3-pyridinyl]-3-[1-(ethylsulfonyl)-4-piperidinyl]-1H-indole-7-carboxamide trifluoroacetate] | ≤ 10
12 | CCS(=O)(=O)N1CCC(c2c[nH]c3c(C(N)=O)cc(-c4ccc(N5CCOCC5)nc4)cc23)CC1 [Example 229, 3-[1-(ethylsulfonyl)-4-piperidinyl]-5-[6-(4-morpholinyl)-3-pyridinyl]-1H-indole-7-carboxamide] | ≤ 10
13 | CCS(=O)(=O)N1CCC(c2c[nH]c3c(C(N)=O)cc(-c4cnn(CCN(C)C)c4)cc23)CC1 [Example 252, 5-{1-[2-(dimethylamino)ethyl]-1H-pyrazol-4-yl}-3-[1-(ethylsulfonyl)-4-piperidinyl]-1H-indole-7-carboxamide] | ≤ 10

The remaining lines, values ahead:

Row | IC50 [µM] | SMILES
14 | ≤ 10 | CCS(=O)(=O)N1CCC(c2c[nH]c3c(C(N)=O)cc(-c4cc(CN(C)C)c(OC)c(OC)c4)cc23)CC1 [Example 51, 5-[3-[(dimethylamino)methyl]-4,5-bis(methyloxy)phenyl]-3-[1-(ethylsulfonyl)-4-piperidinyl]-1H-indole-7-carboxamide]
15 | ≤ 10 | CCS(=O)(=O)N1CCC(c2c[nH]c3c(C(N)=O)cc(-c4cc(CNC(C)C)c(OC)c(OC)c4)cc23)CC1 [Example 53, 3-[1-(ethylsulfonyl)-4-piperidinyl]-5-[3-{[(1-methylethyl)amino]methyl}-4,5-bis(methyloxy)phenyl]-1H-indole-7-carboxamide]
16 | ≤ 10 | CCS(=O)(=O)N1CCC(c2c[nH]c3c(C(N)=O)cc(-c4cc(CNC)c(OC)c(OC)c4)cc23)CC1 [Example 54]
17 | ≤ 10 | CCS(=O)(=O)N1CCC(c2c[nH]c3c(C(N)=O)cc(-c4cc(CNCC(C)(C)C)c(OC)c(OC)c4)cc23)CC1 [Example 55, 5-[3-{[(2,2-dimethylpropyl)amino]methyl}-4,5-bis(methyloxy)phenyl]-3-[1-(ethylsulfonyl)-4-piperidinyl]-1H-indole-7-carboxamide]
18 | ≤ 10 | CCS(=O)(=O)N1CCC(c2c[nH]c3c(C(N)=O)cc(-c4cc(CN(C)CCO)c(OC)c(OC)c4)cc23)CC1 [Example 56, 3-[1-(ethylsulfonyl)-4-piperidinyl]-5-[3-{[(2-hydroxyethyl)(methyl)amino]methyl}-4,5-bis(methyloxy)phenyl]-1H-indole-7-carboxamide]
19 | ≤ 10 | CCS(=O)(=O)N1CCC(c2c[nH]c3c(C(N)=O)cc(-c4cc(CN5CCCC5)c(OC)c(OC)c4)cc23)CC1 [Example 57, 5-[3,4-bis(methyloxy)-5-(1-pyrrolidinylmethyl)phenyl]-3-[1-(ethylsulfonyl)-4-piperidinyl]-1H-indole-7-carboxamide]
20 | ≤ 10 | CCS(=O)(=O)N1CCC(c2c[nH]c3c(C(N)=O)cc(-c4ccc(CN[C@@H](C)CO)cc4)cc23)CC1 [Example 150, 3-[1-(ethylsulfonyl)-4-piperidinyl]-5-[4-({[(1S)-2-hydroxy-1-methylethyl]amino}methyl)phenyl]-1H-indole-7-carboxamide trifluoroacetate]
21 | ≤ 10 | CCS(=O)(=O)N1CCC(c2c[nH]c3c(C(N)=O)cc(-c4ccc(CN[C@H](C)C(C)C)s4)cc23)CC1 [Example 183, 5-[5-({[(1R)-1,2-dimethylpropyl]amino}methyl)-2-thienyl]-3-[1-(ethylsulfonyl)-4-piperidinyl]-1H-indole-7-carboxamide]
22 | ≤ 10 | CCS(=O)(=O)N1CCC(c2c[nH]c3c(C(N)=O)cc(-c4ccc(NC(C)C)nc4)cc23)CC1 [Example 228, 3-[1-(ethylsulfonyl)-4-piperidinyl]-5-{6-[(1-methylethyl)amino]-3-pyridinyl}-1H-indole-7-carboxamide trifluoroacetate]
23 | ≤ 10 | CCS(=O)(=O)N1CCC(c2c[nH]c3c(C(N)=O)cc(-c4ccc(OC)c(CN(C)C)c4)cc23)CC1 [Example 263, 5-[3-[(dimethylamino)methyl]-4-(methyloxy)phenyl]-3-[1-(ethylsulfonyl)-4-piperidinyl]-1H-indole-7-carboxamide trifluoroacetate]
24 | ≤ 10 | CCS(=O)(=O)N1CCC(c2c[nH]c3c(C(N)=O)cc(-c4ccc(OC)c(CN5CCOCC5)c4)cc23)CC1 [Example 264, 3-[1-(ethylsulfonyl)-4-piperidinyl]-5-[4-(methyloxy)-3-(4-morpholinylmethyl)phenyl]-1H-indole-7-carboxamide trifluoroacetate]
25 | ≤ 10 | CCS(=O)(=O)N1CCC(c2c[nH]c3c(C(N)=O)cc(-c4ccc(OC)c(CNC(C)C)c4)cc23)CC1 [Example 265, 3-[1-(ethylsulfonyl)-4-piperidinyl]-5-[3-{[(1-methylethyl)amino]methyl}-4-(methyloxy)phenyl]-1H-indole-7-carboxamide trifluoroacetate]
